From patent publication US8637516B2 (IRM LLC, priority 2010, dated 2014) come the findings set out here.

One assay relates to parental Ba/F3 cells. The assay is described as follows: Proliferation of parental (untransformed, wt) Ba/F3 cells (BAF3/WT). In kind it is cell-based, murine. The following applies: Mus musculus, Table 1, parental cells with IL3, 48 hours. As for the experimental part: (§1) Compound dilutions were made in 384 well plates.
Compounds were tested for their ability to inhibit the proliferation of wt Ba/F3 cells and Ba/F3 cells transformed with constitutively expressed luciferase reporter and BCR-ABL or Tel-FMS or other Tel fusion kinases (EGFR, JAK2, ALK, BMX, FGFR3, FGFR4, FGR2, FLT1, FLT3, IGF1R, INSR, KDR, KIT, LCK, LYN, MEK, MET, PDGFRα, PDGFRβ, RET, RON, ROS, SRC, SYK, TIE and TYRO) or BRafV600E. Parental Ba/F3 cells were maintained in media containing recombinant mouse IL3 and the kinase transformed Ba/F3 cells were maintained in media without IL-3. 7.5 nl of compounds were spotted to each well of 1536-well assay plates by Liquid handling System Echo 555 (Labcyte). 700 cells were then plated into each well of the assay plates in 7 uL culture media per well and compounds were tested at 0.17 nM to 10 uM in 3-fold serial dilutions. The cells were then incubated for 48 hours at 37° C. 3 uL of Bright-Glo® (Promega) was added to each well and the plates were read using ViewLux (PerkinElmer).
(§2) The emited luminiscence is quantified using ViewLux (PerkinElmer).

Assay [1] has as its target T1, Ba/F3 cells transformed with human Tel-TrkA (Homo sapiens, UniProt P04629).
T1 construct: expressed in transfected cells; host or cells: Ba/F3 murine hematopoietic progenitor cells (luciferase expressing); the other entry of the earlier key: ETV6 (P41212, Transcription factor ETV6)
The assay is described as follows: Proliferation of Ba/F3 cells transformed with human Tel-TrkA (Ba/F3 Tel-TrkA). In kind it is cell-based. The note with it: Table 1; 48 hours, Bright Glo luminescence; read-out: Ba/F3 Tel-TrkA.
Description: as §1, §2

Where only a bound is given, the exact number is not on record here.

T1 sequence (P04629 510-796 limits assumed): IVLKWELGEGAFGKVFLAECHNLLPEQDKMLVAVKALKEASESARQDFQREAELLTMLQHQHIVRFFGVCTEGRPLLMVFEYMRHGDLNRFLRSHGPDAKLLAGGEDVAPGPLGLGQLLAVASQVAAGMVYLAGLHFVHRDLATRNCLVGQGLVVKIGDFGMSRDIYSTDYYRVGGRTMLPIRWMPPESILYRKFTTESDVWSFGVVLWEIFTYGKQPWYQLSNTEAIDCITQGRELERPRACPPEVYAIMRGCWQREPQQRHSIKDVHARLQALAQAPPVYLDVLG

In the case of `NC(=O)c1cnc2ccc(N3CCOCC3c3cccc(F)c3)nn12` (racemic) [X-16, 6-(3-(3-fluorophenyl)morpholino)imidazo[1,2-b]pyridazine-3-carboxamide], the IC50 in the assay with parental Ba/F3 cells is above 10 µM; in assay [1], 0.614 µM.

For the compound `Fc1cccc([C@H]2CCCN2c2ccc3ncc(Br)n3n2)c1` [X-1, (R)-3-bromo-6-(2-(3-fluorophenyl)pyrrolidin-1-yl)imidazo[1,2-b]pyridazine], the IC50 in the assay with parental Ba/F3 cells was above 10 µM; in assay [1], 0.316 µM.

For the compound `N#Cc1cnc2ccc(N3CCC[C@@H]3c3cccc(F)c3)nn12` [X-2, (R)-6-(2-(3-fluorophenyl)pyrrolidin-1-yl)imidazo[1,2-b]pyridazine-3-carbonitrile], the IC50 with parental Ba/F3 cells was above 10 µM; in assay [1], 0.268 µM.

Take `N#Cc1cnc2ccc(N3CCOCC3c3cccc(F)c3)nn12` (centres unmarked) [X-3, 6-(3-(3-fluorophenyl)morpholino)imidazo[1,2-b]pyridazine-3-carbonitrile]: the IC50 with parental Ba/F3 cells was above 10 µM; in assay [1], 0.957 µM.

Regarding `C[C@@H]1CN(c2ccc3ncc(C#N)n3n2)[C@@H](c2cccc(F)c2)C1(F)F` [X-4, 6-((2S,4R)-3,3-difluoro-2-(3-fluorophenyl)-4-methylpyrrolidin-1-yl)imidazo[1,2-b]pyridazine-3-carbonitrile], the IC50 was above 10 µM in the assay on parental Ba/F3 cells and 0.155 µM in assay [1].

Regarding `NC(=O)c1cnc2ccc(N3CCCC3c3cccc(F)c3)nn12` (centres unmarked) [X-5, 6-(2-(3-fluorophenyl)pyrrolidin-1-yl)imidazo[1,2-b]pyridazine-3-carboxamide], the IC50 was above 10 µM in the assay on parental Ba/F3 cells and 0.117 µM in assay [1].

For `NC(=O)c1cnc2ccc(N3CCC[C@@H]3c3cccc(F)c3)nn12` [X-6], the IC50 was above 10 µM with parental Ba/F3 cells and 0.051 µM in assay [1].

`NC(=O)c1cnc2ccc(N3C[C@@H](F)C[C@@H]3c3cccc(F)c3)nn12` [X-7, 6-((2R,4S)-4-fluoro-2-(3-fluorophenyl)pyrrolidin-1-yl)imidazo[1,2-b]pyridazine-3-carboxamide]: the IC50 with parental Ba/F3 cells came out at 3.56 µM; in assay [1], 0.005 µM.

On to `[2H]C1(c2cccc(F)c2)CCCN1c1ccc2ncc(C(N)=O)n2n1` (centres unmarked) [X-8, 6-(2-(3-fluorophenyl)pyrrolidin-1-yl)imidazo[1,2-b]pyridazine-3-carboxamide], for which the figures for the IC50 (with parental Ba/F3 cells; in assay [1]) were above 10 µM and 0.15 µM, respectively.

In the case of `[2H][C@]1(c2cccc(F)c2)CCCN1c1ccc2ncc(C(N)=O)n2n1` [X-9], the IC50 in the assay with parental Ba/F3 cells was above 10 µM; in assay [1], 0.012 µM.

On to `[2H]C1([2H])CC[C@@H](c2cccc(F)c2)N1c1ccc2ncc(C(N)=O)n2n1` [X-10], for which the IC50 with parental Ba/F3 cells is above 10 µM; in assay [1] it was 0.841 µM.

On to `[2H]C1([2H])CC[C@H](c2cccc(F)c2)N1c1ccc2ncc(C(N)=O)n2n1` [X-11], for which the IC50 was above 10 µM in the assay on parental Ba/F3 cells and 0.025 µM in assay [1].

With `[2H]C1([2H])C(c2cccc(F)c2)N(c2ccc3ncc(C(N)=O)n3n2)C([2H])([2H])C1([2H])[2H]` (centres unmarked) [X-12], the IC50 in the assay with parental Ba/F3 cells was above 10 µM; in assay [1], 0.105 µM.

Turning to `[2H]C1([2H])N(c2ccc3ncc(C(N)=O)n3n2)C([2H])(c2cccc(F)c2)C([2H])([2H])C1([2H])[2H]` (centres unmarked) [X-13], the IC50 was above 10 µM in the assay with parental Ba/F3 cells and 0.11 µM in assay [1].

Consider `NC(=O)c1cnc2ccc(N3CC=C[C@@H]3c3cccc(F)c3)nn12` [X-15, (R)-6-(2-(3-fluorophenyl)-2,5-dihydro-1H-pyrrol-1-yl)imidazo[1,2-b]pyridazine-3-carboxamide], for which the figures for the IC50 (in the assay on parental Ba/F3 cells; in assay [1]) were 7.26 µM and 0.013 µM, respectively.

Turning to `NC(=O)c1cnc2ccc(N3CCOC[C@H]3c3cccc(F)c3)nn12` [X-17, (R)-6-(3-(3-fluorophenyl)morpholino)imidazo[1,2-b]pyridazine-3-carboxamide], the IC50 with parental Ba/F3 cells is above 10 µM; in assay [1], 0.328 µM.

Turning to `NC(=O)c1cnc2ccc(N3CCCCC3c3cccc(F)c3)nn12` (centres unmarked) [X-18], the results for the IC50 (in the assay with parental Ba/F3 cells; in assay [1]) were above 10 µM and 0.027 µM, respectively.

For `NC(=O)c1cnc2ccc(N3CCCC[C@@H]3c3cccc(F)c3)nn12` [X-19], the IC50 was above 10 µM in the assay with parental Ba/F3 cells and 0.079 µM in assay [1].

Consider `O=C(NCCCCO)c1cnc2ccc(N3CCC[C@@H]3c3cccc(F)c3)nn12` [X-20], for which the results for the IC50 (in the assay on parental Ba/F3 cells; in assay [1]) were above 10 µM and 0.03 µM, respectively.

With `CCNC(=O)c1cnc2ccc(N3CCCC3c3cccc(F)c3)nn12` (centres unmarked) [X-21], the IC50 in the assay with parental Ba/F3 cells is above 10 µM; in assay [1] it was 0.042 µM.

Regarding `O=C(NCC1CCC1)c1cnc2ccc(N3CCC[C@@H]3c3cccc(F)c3)nn12` [X-22], the IC50 was above 10 µM with parental Ba/F3 cells and 0.047 µM in assay [1].

As to `O=C(NCCC1CCCO1)c1cnc2ccc(N3CCC[C@@H]3c3cccc(F)c3)nn12` (some centres unmarked) [X-23], the figures for the IC50 (in the assay with parental Ba/F3 cells; in assay [1]) were above 10 µM and 0.092 µM, respectively.

For `O=C(NCc1ccc(F)cc1)c1cnc2ccc(N3CCCC3c3cccc(F)c3)nn12` (centres unmarked) [X-24], the IC50 in the assay on parental Ba/F3 cells was above 10 µM; in assay [1], 0.236 µM.

Consider `O=C(NCc1cccc(N2CCOCC2)n1)c1cnc2ccc(N3CCC[C@@H]3c3cccc(F)c3)nn12` [X-25], for which the IC50 in the assay on parental Ba/F3 cells was above 8.99 µM; in assay [1], 0.037 µM.

For the compound `O=C(COc1ccc(F)cc1)Nc1cnc2ccc(N3CCC[C@@H]3c3cccc(F)c3)nn12` [X-26], the IC50 is above 10 µM in the assay on parental Ba/F3 cells and 0.085 µM in assay [1].

As to `CCS(=O)(=O)N1CCC(NC(=O)c2cnc3ccc(N4CCC[C@@H]4c4cccc(F)c4)nn23)CC1` [X-27], the IC50 with parental Ba/F3 cells is above 10 µM; in assay [1], 0.017 µM.

For the compound `O=C(N[C@H]1CCCC[C@@H]1CO)c1cnc2ccc(N3CCC[C@@H]3c3cccc(F)c3)nn12` [X-28], the IC50 with parental Ba/F3 cells is above 10 µM; in assay [1] it was 0.112 µM.

With `NS(=O)(=O)N1CCC(NC(=O)c2cnc3ccc(N4CCC[C@@H]4c4cccc(F)c4)nn23)CC1` [X-29, (R)-6-(2-(3-fluorophenyl)pyrrolidin-1-yl)-N-(1-sulfamoylpiperidin-4-yl)imidazo[1,2-b]pyridazine-3-carboxamide], the IC50 was above 10 µM in the assay with parental Ba/F3 cells and 0.239 µM in assay [1].

`CS(=O)(=O)N1CC[C@H](NC(=O)c2cnc3ccc(N4CCC[C@@H]4c4cccc(F)c4)nn23)C1` [X-30]: the results for the IC50 (with parental Ba/F3 cells; in assay [1]) were above 10 µM and 0.031 µM, respectively.

In the case of `CC(C)S(=O)(=O)N1CC[C@H](NC(=O)c2cnc3ccc(N4CCC[C@@H]4c4cccc(F)c4)nn23)C1` [X-31], the IC50 in the assay with parental Ba/F3 cells is above 10 µM; in assay [1], 0.124 µM.

Turning to `CC(C)S(=O)(=O)N1CCC(NC(=O)c2cnc3ccc(N4CCC[C@@H]4c4cccc(F)c4)nn23)CC1` [X-32], the IC50 with parental Ba/F3 cells is above 10 µM; in assay [1], 0.019 µM.

Regarding `CC(=O)O[C@@H](C)C(=O)N1CCC(NC(=O)c2cnc3ccc(N4CCC[C@@H]4c4cccc(F)c4)nn23)CC1` [X-33], the values for the IC50 (in the assay on parental Ba/F3 cells; in assay [1]) were above 10 µM and 0.105 µM, respectively.

As for `C[C@H](O)C(=O)N1CCC(NC(=O)c2cnc3ccc(N4CCC[C@@H]4c4cccc(F)c4)nn23)CC1` [X-34], the IC50 with parental Ba/F3 cells is above 10 µM; in assay [1], 0.076 µM.

`CCCS(=O)(=O)N1CCC(NC(=O)c2cnc3ccc(N4CCC[C@@H]4c4cccc(F)c4)nn23)CC1` [X-35]: the IC50 was above 10 µM in the assay on parental Ba/F3 cells and 0.026 µM in assay [1].

With `CC1(C)CCC(CNC(=O)c2cnc3ccc(N4CCC[C@@H]4c4cccc(F)c4)nn23)O1` (some centres unmarked) [X-36], the results for the IC50 (in the assay on parental Ba/F3 cells; in assay [1]) were above 10 µM and 0.12 µM, respectively.

Consider `O=C(NCCc1ccc(F)cc1)c1cnc2ccc(N3CCC[C@@H]3c3cccc(F)c3)nn12` [X-37], for which the IC50 in the assay with parental Ba/F3 cells is above 10 µM; in assay [1] it was 0.137 µM.

In the case of `O=C(NCc1nc2ccccc2s1)c1cnc2ccc(N3CCC[C@@H]3c3cccc(F)c3)nn12` [X-38], the results for the IC50 (in the assay on parental Ba/F3 cells; in assay [1]) were above 10 µM and 0.196 µM, respectively.

With `CC(C)NC(=O)c1cnc2ccc(N3CCC[C@@H]3c3cccc(F)c3)nn12` [X-39], the IC50 in the assay with parental Ba/F3 cells is above 10 µM; in assay [1], 0.014 µM.

Consider `CCN(CC)CCCNC(=O)c1cnc2ccc(N3CCC[C@H]3c3cccc(F)c3)nn12` [X-40], for which the IC50 with parental Ba/F3 cells was above 10 µM; in assay [1], 0.951 µM.

Regarding `CC(C)(Cc1ccc(F)cc1)NC(=O)c1cnc2ccc(N3CCC[C@@H]3c3cccc(F)c3)nn12` [X-41], the IC50 in the assay on parental Ba/F3 cells was 9 µM; in assay [1] it was 0.527 µM.

Take `CC(NC(=O)c1cnc2ccc(N3CCC[C@@H]3c3cccc(F)c3)nn12)c1ccc(F)cc1` (some centres unmarked) [X-42]: the IC50 in the assay with parental Ba/F3 cells is above 9.57 µM; in assay [1] it was 0.127 µM.

For `CNC(=O)c1cnc2ccc(N3CCC[C@@H]3c3cccc(F)c3)nn12` [X-43], the IC50 was above 10 µM in the assay on parental Ba/F3 cells and 0.046 µM in assay [1].

On to `O=C(NC1CC1)c1cnc2ccc(N3CCC[C@@H]3c3cccc(F)c3)nn12` [X-44], for which the IC50 is above 10 µM in the assay on parental Ba/F3 cells and 0.011 µM in assay [1].

On to `CC(C)(C)NC(=O)c1cnc2ccc(N3CCC[C@@H]3c3cccc(F)c3)nn12` [X-45], for which the IC50 was above 10 µM in the assay on parental Ba/F3 cells and 0.022 µM in assay [1].

Consider `O=C(NCCF)c1cnc2ccc(N3C[C@@H](F)C[C@@H]3c3cccc(F)c3)nn12` [X-112, 6-((2R,4S)-4-fluoro-2-(3-fluorophenyl)pyrrolidin-1-yl)-N-(2-fluoroethyl)imidazo[1,2-b]pyridazine-3-carboxamide], for which, in the assay on parental Ba/F3 cells, the IC50 stood at 5.45 µM.
